Measurements: publication PMC5047689 (Disease Models & Mechanisms, 2016)

Experiments:
CLB-GE cells = assay: Resazurin cell proliferation assay, neuroblastoma cell line; assay type: cell-based; details: Homo sapiens, 120 h, read-out: IC50, inhibition of proliferation
Method: Fig. 1. […] Treatment of neuroblastoma cells with the ALK TKIs crizotinib and PF-06463922. (A,B) Proliferation was assessed over 5 days using the resazurin cell proliferation assay in the following neuroblastoma cell lines: CLB-BAR, CLB-GE, CLB-PE, SK-N-AS and IMR32. Neuroblastoma cell line characteristics: CLB-GE – MYCN amplified, 1p deletion, 17q gain, amplified ALK amplicon containing an ALK^F1174V mutation; CLB-BAR – amplified MYCN/ALK, Δexon 4-11, 1p deletion, 17q gain; IMR32 – MYCN, wt sequence but exons 2-4 are amplified, 1p deletion, 17q gain; CLB-PE – 1p gain, amplified MYCN, 17q gain; SK-N-AS – IGF-1 overexpressing, 1p deletion, 1q gain, 17q gain, 17 deletion. […] Cells were harvested and pre-cleared cell lysates were analyzed on SDS PAGE followed by western blotting for ALK, phospho-ALK-Y1278, phospho-ERK5, pan-ERK5 phospho-ERK1/2 and pan-ERK. Actin was employed as a loading control. Protein band intensities were quantified by Image Studio Lite 3.1 and normalized to untreated samples.
The neuroblastoma CLB cell lines were from Valerie Combaret (Centre Leon Berard, France) under material transfer agreement and all cell lines were authenticated during the investigation with Affymetrix Cytoscan High Density array and compared with earlier cytoscans ([Schleiermacher et al., 2003]). […]

[1] = system: EML4-ALK-driven brain metastases; set-up: method as in Zou et al., 2015; details: mouse; effect reversible upon withdrawal; ref Zou et al., 2015; cited from earlier work
SK-N-AS cells = assay: Resazurin cell proliferation assay, neuroblastoma cell line; assay type: cell-based, human
Method: (§1) Fig. 1. […] (A,B) Proliferation was assessed over 5 days using the resazurin cell proliferation assay in the following neuroblastoma cell lines: CLB-BAR, CLB-GE, CLB-PE, SK-N-AS and IMR32. Neuroblastoma cell line characteristics: CLB-GE – MYCN amplified, 1p deletion, 17q gain, amplified ALK amplicon containing an ALK^F1174V mutation; CLB-BAR – amplified MYCN/ALK, Δexon 4-11, 1p deletion, 17q gain; IMR32 – MYCN, wt sequence but exons 2-4 are amplified, 1p deletion, 17q gain; CLB-PE – 1p gain, amplified MYCN, 17q gain; SK-N-AS – IGF-1 overexpressing, 1p deletion, 1q gain, 17q gain, 17 deletion. […] Cells were harvested and pre-cleared cell lysates were analyzed on SDS PAGE followed by western blotting for ALK, phospho-ALK-Y1278, phospho-ERK5, pan-ERK5 phospho-ERK1/2 and pan-ERK. Actin was employed as a loading control. Protein band intensities were quantified by Image Studio Lite 3.1 and normalized to untreated samples.
(§2) CLB-BAR, CLB-GE, CLB-PE, SK-N-AS and IMR32 neuroblastoma cells (0.25×10^6) were plated on collagen-coated 48-well plates.

IMR32 cells = assay: as above; assay type: cell-based, human
Method: as §1, §2

CLB-PE cells = assay: as above; assay type: cell-based, human
Method: as §1, §2

CLB-BAR cells = assay: as above; assay type: cell-based; details: Homo sapiens, 120 h, read-out: IC50, inhibition of proliferation
Method: as §1, §2

[2] = system: CLB-GE subcutaneous xenograft; assay: Subcutaneous CLB-GE (ALK^F1174V) xenograft in nude mice; assay type: in vivo, mouse
Method: Fig. 5. […] 4.5×10^6 CLB-GE cells were injected into left shoulder subcutaneously. (A) Tumor growth curves represent the average volume of vehicle group and PF-06463922-treated group, P≤0.05 (n=5 for each group). […] (C) Average body weight on the day of sacrifice is shown, P>0.05. (D) Immunoblotting analysis of indicated proteins from tumors collected after 8 days of treatment with vehicle or PF-0646399 and relapsed tumors. Tumor lysates were harvested, pre-cleared and analyzed by western blotting for ALK, phospho-ALK-Y1278, MYCN, phospho-ERK1/2 and phospho-AKT. Pan-ERK and pan-Akt were employed as loading controls. (E) Immunohistochemical staining of tumors for […] as a measure of proliferation rate as indicated. […] Data in all graphs presented as mean±s.d.
Mice were grouped by tumor volume randomly. […] Immunohistochemistry was as described ([Yamazaki et al., 2014]). […] (n=15).

[3] = set-up: method as in Johnson et al., 2014; Zou et al., 2015; details: ref Johnson et al., 2014, Zou et al., 2015, cited from earlier work
[4] = molecular target: ALK kinase domain mutants; assay: In vitro kinase assay, summary over ALK kinase domain mutants; assay type: biochemical, human; details: including ALK^G1269A, read-out: inhibitor level for 50% reduction in activity, all kinase domain mutations tested
[5] = system: ALK (phospho-ALK-Y1278) and downstream signaling; assay: Immunoblotting of ALK signaling in CLB-BAR and CLB-GE neuroblastoma cells; assay type: cell-based, human; details: 6 h treatment, western blot
Method: as §1, §2

[6] = 10 mg/kg twice per day, oral gavage, 7 days
[7] = 10 mg/kg twice per day, tumor lysates, western blot

SMILES | IC50 (CLB-GE cells) [nM] | tumor volume and survival [1] | decrease in proliferation at high doses (SK-N-AS cells; high doses (500 nM)) | inhibition of proliferation (SK-N-AS cells; increasing doses, 5 days) | decrease in proliferation at high doses (IMR32 cells; high doses (500 nM)) | inhibition of proliferation (IMR32 cells; increasing doses, 5 days) | decrease in proliferation at high doses (CLB-PE cells; high doses (500 nM)) | inhibition of proliferation (CLB-PE cells; increasing doses, 5 days) | IC50 (CLB-BAR cells) [nM] | Ki-67 staining of tumors ([2]; 10 mg/kg twice per day, immunohistochemistry) | body weight during treatment [2, 6] | tumor size during treatment [2, 6] | MYCN expression in tumors [2, 7] | phosphorylated ALK, ERK1/2 and PKB/Akt in tumors [2, 7] | tumor re-growth after cessation of therapy ([2]; after 7 days of 10 mg/kg twice per day, treatment discontinued) | half-life ([3]; preclinical animal model) [h] | central nervous system penetration [3] | IC50 [4] [nM] | ALK Y1278 phosphorylation [5] | downstream signaling, pERK1/2 and pERK5 [5]
C[C@H]1Oc2cc(cnc2N)-c2c(nn(C)c2C#N)CN(C)C(=O)c2ccc(F)cc21 [PF-06463922, (10R)-7-amino-12-fluoro-2,10,16-trimethyl-15-oxo-10,15,16,17-tetrahydro-2H-8,4-(metheno)pyrazolo[4,3-h][2,5,11]-benzoxadiazacyclotetradecine-3-carbonitrile] | 25 ± 2 | regression of tumor volume and prolonged mouse survival | not observed | did not observe inhibition of proliferation | not observed | did not observe inhibition of proliferation | not observed | did not observe inhibition of proliferation | 16 ± 2 | reduced staining of the proliferation marker Ki-67 | no observed loss of body weight | no increase of tumor size during treatment | reduced expression of MYCN | Inhibition of phosphorylated ALK, ERK1/2 and PKB/Akt was observed | Tumor re-growth was observed 7 days after cessation of therapy | 2.7 | ability to penetrate the central nervous system | < 6.5 | loss of tyrosine 1278 (Y1278) phosphorylation on ALK | inhibition of downstream signaling
C[C@@H](Oc1cc(-c2cnn(C3CCNCC3)c2)cnc1N)c1c(Cl)ccc(F)c1Cl [crizotinib] | 240 ± 27 | – | – | – | – | – | – | – | – | – | – | – | – | – | – | – | – | – | – | –
